The subject of one assay is human TARS. The experiment in a line: GTPase (GTP hydrolysis) assay. In kind it is biochemical. The note with it: for change in TARS GTPase activity upon treatment: 10 μM compound.
The test system of assay [1] is chorioallantoic membrane (CAM). As to the kind of experiment: Chick chorioallantoic membrane (CAM) assay. Format: in vivo, chicken. As to conditions: for CAM vessel formation / vascularization on application of protein: purified protein applied daily to sponge on CAM, 72 h. How it is done:
Chick Chorioallantoic Membrane Assay—Fertilized chicken eggs (Sunrise Farms, Catskill, N.Y.) day 1-2 post-laying were incubated in a humidified incubator at 37° C. for 72 h. Cleaned eggs were cracked and plated in a sterile 10 cm^2 tissue culture-treated dish and incubated at 37° C. for another 7 days. On developmental day 10, 1 mm sterile gelatin sponge pieces (Surgifoam®; Johnson & Johnson Wound Management, Somerville, N.J.) were placed within the outer one-third of the membrane between large vessels. 40 μg/ml human bFGF and 2 μg/ml human VEGF were used as pro-angiogenic control compounds; 100 μg/mL retinoic acid (Sigma-Aldrich, St. Louis, Mo.) diluted in phosphate-buffered saline (PBS) was used as an angiostatic control. All compounds were applied in 10 μl to the CAM every 24 h for 72 h. Images were taken using a Leica MZ6 stereomicroscope every 24 h. Compounds were scored according to a modified version of Intensity Scoring as previously described (Ribatti, Nico et al. 2006). Briefly, each experimental condition was given a blinded score from 0-5 based on the change in the extent of vessel convergence and formation in proximity to the sponge from day 0 to day 3. Total score is averaged individual experimental condition scores from at least 15 replicates.
Fertilized chicken embryos were cultured ex-ova and, starting at developmental day 10, agents were applied daily to gelfoam sponges on the CAM. Images were recorded daily over 72 h and scored blindly according to a modified version Intensity Scoring as previously described (Ribatti, Nico, 2006). Additional details regarding methods are provided in the Methods and Materials section of Example 1.

Assay [2] concerns SK-OV3 ovarian cancer cells. As to the kind of experiment: HIF-1α stabilization in hypoxia (Western blot). In kind it is cell-based, Human. Here is the method:
Co-Immunoprecipitation—Plasmids expressing biotinylatable TARS (pTARS) and myc-tagged VHL (pVHL) were transfected into HEK293 cells, and then extracts were prepared. Biotin-TARS was precipitated using streptavidin-coupled beads. Myc-VHL was precipitated using anti-myc antibodies. Precipitates were separated by SDS-PAGE, transferred and blots probed with anti-TARS antibody or anti-myc (VHL) antibody. Western blot—After treatments, cells were harvested into sample buffer containing: 0.2 M Tris-HCL, 4% SDS, 4% β-mercaptoethanol, 40% glycerol, 4 μM pyronin Y. Extracts were sheared through a 24-gauge syringe. Samples were separated by 10% SDS-PAGE and transferred to nitrocellulose membrane and probed with rabbit polyclonal anti-TARS (1:500; Santa Cruz Biotechnology, Dallas, Tex.) or monoclonal anti-HIF-1α (BD Transduction Laboratories, [BD Biosciences, San Jose, Calif.]) (Lounsbury, Beddow et al., 1994). […] Major bands and their empty vector counterparts were detected using SilverSNAP Stain Kit II (Pierce) and excised. […] Peptides were analyzed by electospray ionization (ESI) liquid chromatography mass spectrometry (LC-MS). […] Spectra were obtained using collision-induced dissociation with an LTQ linear quadrupole ion trap-Orbitrap mass spectrometer (Thermo Electro, San Jose, Calif.) and analyzed using SEQUEST (Bioworks software package, version 3.3.1; Thermo Electron, San Jose, Calif.). […]
A general note: In western blotting, separated proteins are transferred to a membrane and probed.

In assay [3] the test system is HUVECs. The experiment in a line: Endothelial cell proliferation assay (alamarBlue). In kind it is cell-based, Human. The note with it: 10 nM BC194 with 50 ng/ml VEGF, low serum media. How it is done:
Endothelial Cell Proliferation Assay—The […] alamarBlue® (Invitrogen) reagent was used to assess cell proliferation (Ahmed, Gogal et al. 1994). HUVECs were seeded in a 96-well dish (1×10^3 cells/well) and grown for 48 h in EGM®-2 media. Cells were incubated in 0.2% FBS EGM®-2 media or EGM®-2 complete media as indicated; VEGF (50 ng/ml) and media alone served as controls. After 48 h, 72 h, or 96 h in culture, 10 μl/well premixed alamarBlue® (Invitrogen) was added and after 3 h at 37° C. the amount of reduced alamarBlue® was quantified by fluorescence (excitation at 530 nm, emission at 590 nm) on a microplate reader (Synergy™ HT, BioTek, Winooski, Vt.).
In general terms: The colour change of resazurin is a common sign of viable cells or microbes.

For assay [4], the system named is Human umbilical vein endothelial cells (HUVECs). As to the kind of experiment: In vitro endothelial tube formation assay. In kind it is cell-based. How it is done: In vitro Tube Formation Assay—Tube formation assays were performed as described (Arnaoutova and Kleinman 2010; Cassavaugh, Hale et al., 201). Human Umbilical Vein Endothelial Cells (HUVECs) were seeded in 48-well plates (1.5×10^4 cells/well) coated with 100 μl of Matrigel™ Basement Membrane Matrix Growth Factor Reduced (BD Biosciences, San Jose, Calif.) and incubated in Clonetics® EGM®-2 complete media (Lonza, Annandale, N.J.) or EGM®-2 with reduced serum (0.2% fetal bovine serum). Cells were incubated at 37° C. for 6 h then fixed in 10% formalin. Fixed samples were imaged by phase-contrast microscopy or stained with Oregon Green 488 Phalloidin (Molecular Probes, Eugene, Oreg.) then imaged with fluorescence microscopy (2× objective). Number of tubes and tube lengths (in pixels) were quantified using the Simple Neurite Tracer (Longair, Baker et al. 2011) plug-in on ImageJ software (NIH). Statistical analysis of one-way ANOVA was performed with GraphPad Software. Multiple comparisons were performed using the Tukey Test.

Assay [5] has as its system HUVECs. The experiment in a line: TARS mRNA by quantitative RT-PCR. Format: cell-based, Human. The note with it: HUVECs exposed to 50 ng/ml. Here is the method: Quantitative RT-PCR—Total RNA was extracted from cells using the RNeasy column protocol and cDNA was generated using an Omniscript reverse transcriptase assay according to the manufacturer's instructions (Qiagen, Frederick, Md.). Primers and probes for TARS and β2-microglobulin were Assays-on-Demand (Applied Biosystems, [Life Technologies, Carlsbad, Calif.]). RT-qPCR was performed using an ABI prism 7700 Sequence Detection System (Applied Biosystems). The relative quantity of mRNA level was determined using the comparative CT (ΔΔCT) method using β2-microglobulin to normalize mRNA level (Cassavaugh, Hale et al. 2011).

Where [6] appears, read: canonical substrate added to human TARS.

Consider `Nc1ncnc2c1ncn2[C@@H]1O[C@H](COP(=O)(O)OP(=O)(O)OP(=O)(O)O)[C@@H](O)[C@H]1O` [ATP], for which the “decrease in GTPase activity” value in the assay with human TARS (setting [6]) stood at 77%.
Regarding `C[C@@H]1C[C@H](C)C[C@H](C)[C@@H](O)CC(=O)O[C@H]([C@@H]2CC[C@H]2C(=O)O)C/C=C/C=C(/C#N)[C@H](O)[C@@H](C)C1` [BC194, reference compound], in assay [1] (daily application to gel sponge, basal level and after stimulation with bFGF or VEGF), the “CAM vessel formation with inhibitor” value was “inhibited vessel formation”. For the same molecule, the HIF-1α transcription entry in assay [2] was “no change”. Further, the “effect on VEGF proliferative response” value with HUVECs [3] was “did not significantly reduce”. Moreover, the “change in TARS GTPase activity upon treatment” value in the assay on human TARS is given as “no observable change”. In assay [4] (HUVECs on Matrigel, range of BC194 concentrations, 6 h), the tube length result is reported as “unaffected”. The “concentration required to affect tube formation relative to that required to detect unfolded protein response (phospho-eIF2a) and apoptosis (cleaved caspase-3)” value in assay [4] (fold lower) stood at 100 fold.
As for `C[C@@H]1C[C@H](C)C[C@H](C)[C@@H](O)CC(=O)O[C@H]([C@@H]2CCC[C@H]2C(=O)O)C/C=C/C=C(/C#N)[C@H](O)[C@@H](C)C1` [borrelidin, reference compound], in assay [2], the HIF-1α transcription entry is “no change”. Also, the “change in TARS GTPase activity upon treatment” value in the assay with human TARS was “no observable change”.
As for `C[C@@H](O)[C@H](N)C(=O)O` [threonine], the “increase in GTPase activity” value with human TARS (setting [6]) was determined as 26%.
Consider “LARS: N-terminal His6-tagged human leucyl tRNA synthetase purified from E. coli”, for which the “CAM vessel formation / vascularization on application of protein” value (“CAM vessel formation / vascularization” below) in assay [1] was “no observable effect”.
TNF-α: the “TARS transcription (TARS mRNA)” value with HUVECs [5] is “do not induce TARS transcription”.
On the same count and under the same terms, the result for VEGF reads “do not induce TARS transcription”.

B1: L567V TARS: BC194-resistant (borrelidin-resistant) L567V mutant of human TARS (protein, UniProt P26639 1-723, looked up, variant L567V)
Threonine--tRNA ligase 1, …: MFEEKASSPSGKMGGEEKPIGAGEEKQKEGGKKKNKEGSGDGGRAELNPWPEYIYTRLEMYNILKAEHDSILAEKAEKDSKPIKVTLPDGKQVDAESWKTTPYQIACGISQGLADNTVIAKVNNVVWDLDRPLEEDCTLELLKFEDEEAQAVYWHSSAHIMGEAMERVYGGCLCYGPPIENGFYYDMYLEEGGVSSNDFSSLEALCKKIIKEKQAFERLEVKKETLLAMFKYNKFKCRILNEKVNTPTTTVYRCGPLIDLCRGPHVRHTGKIKALKIHKNSSTYWEGKADMETLQRIYGISFPDPKMLKEWEKFQEEAKNRDHRKIGRDQELYFFHELSPGSCFFLPKGAYIYNALIEFIRSEYRKRGFQEVVTPNIFNSRLWMTSGHWQHYSENMFSFEVEKELFALKPMNCPGHCLMFDHRPRSWRELPLRLADFGVLHRNELSGALTGLTRVRRFQQDDAHIFCAMEQIEDEIKGCLDFLRTVYSVFGFSFKLNLSTRPEKFLGDIEVWDQAEKQLENSLNEFGEKWELNSGDGAFYGPKIDIQIKDAIGRYHQCATIQLDFQVPIRFNLTYVSHDGDDKKRPVIVHRAILGSVERMIAILTENYGGKWPFWLSPRQVMVVPVGPTCDEYAQKVRQQFHDAKFMADIDLDPGCTLNKKIRNAQLAQYNFILVVGEKEKISGTVNIRTRDNKVHGERTISETIERLQQLKEFRSKQAEEEF
For B1, the “sensitivity of the protein's CAM angiogenic effect to BC194” value in assay [1] (protein co-applied with BC194) is on record as “not inhibited”. The “CAM vessel formation / vascularization” value in assay [1] is given as “stimulated vessel formation”.

B2: R442A TARS: aminoacylation-deficient human TARS mutant, active site Arg442 substituted with alanine (protein, UniProt P26639 1-723, looked up, variant R442A)
Threonine--tRNA ligase 1, …: MFEEKASSPSGKMGGEEKPIGAGEEKQKEGGKKKNKEGSGDGGRAELNPWPEYIYTRLEMYNILKAEHDSILAEKAEKDSKPIKVTLPDGKQVDAESWKTTPYQIACGISQGLADNTVIAKVNNVVWDLDRPLEEDCTLELLKFEDEEAQAVYWHSSAHIMGEAMERVYGGCLCYGPPIENGFYYDMYLEEGGVSSNDFSSLEALCKKIIKEKQAFERLEVKKETLLAMFKYNKFKCRILNEKVNTPTTTVYRCGPLIDLCRGPHVRHTGKIKALKIHKNSSTYWEGKADMETLQRIYGISFPDPKMLKEWEKFQEEAKNRDHRKIGRDQELYFFHELSPGSCFFLPKGAYIYNALIEFIRSEYRKRGFQEVVTPNIFNSRLWMTSGHWQHYSENMFSFEVEKELFALKPMNCPGHCLMFDHRPRSWRELPLRLADFGVLHANELSGALTGLTRVRRFQQDDAHIFCAMEQIEDEIKGCLDFLRTVYSVFGFSFKLNLSTRPEKFLGDIEVWDQAEKQLENSLNEFGEKWELNSGDGAFYGPKIDIQIKDAIGRYHQCATIQLDFQLPIRFNLTYVSHDGDDKKRPVIVHRAILGSVERMIAILTENYGGKWPFWLSPRQVMVVPVGPTCDEYAQKVRQQFHDAKFMADIDLDPGCTLNKKIRNAQLAQYNFILVVGEKEKISGTVNIRTRDNKVHGERTISETIERLQQLKEFRSKQAEEEF
Consider B2, for which the “CAM vessel formation / vascularization” value in assay [1] is given as “virtually indistinguishable from wild type”.

The record behind these values is patent US11719696B2, “Methods and compounds for diagnosing threonyl-tRNA synthetase-associated diseases and conditions” (The University of Vermont and State Agricultural College, priority 2012, dated 2023).
